Data set [1] concerns inflammatory cytokines (MCP1, IL-6, TNFα) in BALF. In words: LPS ALI model: inflammatory cytokines in BALF by ELISA (Table 4). The format is in vivo, mice. Particulars: LPS 0.05 mg/kg IT; SEQ 0.3 mg/kg SC, Sivelestat 150 mg/kg IP; 24 hours. Here is the method: Animal care and treatment: Male C57BL/6J mice (6 weeks-old) were purchased from Kyudo (Saga, Japan) and maintained under a 12-hour light/12-hour dark cycle with free access to water and standard mouse diet (MF diet, Oriental Yeast Co., Ltd. Tokyo, Japan). Drug administration: Mice were administered LPS (0.05 mg/kg IT; Sigma-Aldrich) followed by treatment with various test articles, including Sivelestat (150 mg/kg; Nipro, Osaka, Japan), an inhibitor of human neutrophil elastase, injected IP as a positive control, and cationic alkyl modified CNPs (SEQ ID NO: 31, 29, and 30; 0.3 mg/kg (0.1 μmol/kg) SC). The test articles were administered immediately after LPS injection. Additionally, a normal control (NC) group without LPS administration and a Control group receiving only LPS without any test article were included. After 24 hours, the mice were euthanized under isoflurane anesthesia and BALF was harvested. Biochemical analysis: ALI and ARDS are often characterized by increased levels of inflammatory cytokines, including Macrophage Chemoattractant Protein-1 (MCP1), Interleukin-6 (IL-6), and […] (TNFα), in BALF. Decreases in their concentration can indicate the resolution of ALI/ARDS. Concentration of each cytokine (MCP1, IL-6, and TNFα) was measured using an ELISA kit (R&D SYSTEMS, Minneapolis M N). […] Statistical analysis was based on Dunnett's test performed by using GraphPad. (n=5, 8, 8, 8, and 8; NC, Control, PC, SEQ ID NO: 31, SEQ ID NO: 29). *** P<0.001, ** P<0.01, * P<0.05 vs each corresponding Control group.
A general note: ELISA stands for enzyme-linked immunosorbent assay.

For data set [2] the following is noted: mouse, in vivo, sc, 1 mg/kg. Here is the method: FIGS. 1A-1B: PK/PD Profiles for single subcutaneous (SC) injection of native CNP (SEQ ID NO: 32), SEQ ID NO: 31, and SEQ ID NO: 29 at 1.0 mg/kg (0.45, 0.33, and 0.33 μmol/kg, respectively) in mice. Error bars represent standard error of the mean. FIG. 1A) Plasma CNP [mean (SEM); n=5] in CD-1 mice after subcutaneous administration of 1.0 mg/kg of native CNP (SEQ ID NO: 32), SEQ ID NO: 31, and SEQ ID NO: 29 (0.45, 0.33, and 0.33 μmol/kg, respectively) in buffer. […] Plasma CNP in CD-1 mice was measured by CNP ELISA kit from Phoenix Pharmaceuticals (EKE-012-03, Burlingame, CA).
The animals were kept in PharmaIN animal facility with controlled temperature (68-74° F.) and humidity (30-60%), and a 12-hour light/dark cycle. […] Lead buffer was used to formulate or dissolve all test articles on the day of administration. […] Biochemical analysis: For pharmacokinetic study, plasma aliquots were thawed at 4° C. then analyzed using a commercially available CNP ELISA kit from Phoenix Pharmaceuticals (cat #EKE-012-03), which detects the cyclic structure of CNP and all CNP derivatives with the same level of reactivity to the ELISA kit. […] For pharmacodynamic or bioactivity study of cGMP, plasma aliquots were thawed at 4° C. then analyzed using a commercially available cGMP kit from Abcam (ab133052, Waltham, MA).

The structures appear in SMILES notation. Marks after values point to notes of the source that are not given here. Bridge positions count the residues as written; N and C are the ends. Square brackets hold non-standard residues; d marks the D form. Peptide text beside a SMILES is read from it. * marks the point of attachment. Palmitoyl = CCCCCCCCCCCCCCCC(=O)*; Dab = NCC[C@H](N)C(=O)O; Dap = NC[C@H](N)C(=O)O; AEEA = NCCOCCOCC(=O)O

For `CCCCCCCCCCCCCCCC(=O)NCCOCCOCC(=O)NCCOCCOCC(=O)NCCOCCOCC(=O)N[C@@H](CCN)C(=O)N[C@@H](CCN)C(=O)NCC(=O)N[C@@H](CC(C)C)C(=O)N[C@@H](CO)C(=O)N[C@@H](CCCCN)C(=O)NCC(=O)N[C@H]1CSSC[C@@H](C(=O)O)NC(=O)CNC(=O)[C@H](CC(C)C)NC(=O)CNC(=O)[C@H](CO)NC(=O)[C@H](CCC(N)=O)NC(=O)[C@H](CO)NC(=O)CNC(=O)[C@H]([C@@H](C)CC)NC(=O)[C@H](CCCNC(=N)N)NC(=O)[C@H](CC(=O)O)NC(=O)[C@H](CC(C)C)NC(=O)[C@H](CCCCN)NC(=O)[C@H](CC(C)C)NC(=O)CNC(=O)[C@H](Cc2ccccc2)NC1=O` [SEQ ID NO: 29] ({Palmitoyl-AEEA-AEEA-AEEA}-[Dab][Dab]GLSKGCFGLKLDRIGSQSGLGC-OH; disulfide 8-24; C-terminus assumed), in data set [1], the “IL-6 in BALF” value is reported as 76 % Of Control, the “MCP1 in BALF” value stood at 69 % Of Control and the “TNFα in BALF” value is recorded as 39** % Of Control. The “Increase of baseline plasma CNP levels” value in data set [2] is reported as more than 10 fold.

As for `CCCCCCCCCCCCCCCC(=O)NCCOCCOCC(=O)NCCOCCOCC(=O)NCCOCCOCC(=O)N[C@@H](CN)C(=O)N[C@@H](CN)C(=O)NCC(=O)N[C@@H](CC(C)C)C(=O)N[C@@H](CO)C(=O)N[C@@H](CCCCN)C(=O)NCC(=O)N[C@H]1CSSC[C@@H](C(=O)O)NC(=O)CNC(=O)[C@H](CC(C)C)NC(=O)CNC(=O)[C@H](CO)NC(=O)[C@H](CCC(N)=O)NC(=O)[C@H](CO)NC(=O)CNC(=O)[C@H]([C@@H](C)CC)NC(=O)[C@H](CCCNC(=N)N)NC(=O)[C@H](CC(=O)O)NC(=O)[C@H](CC(C)C)NC(=O)[C@H](CCCCN)NC(=O)[C@H](CC(C)C)NC(=O)CNC(=O)[C@H](Cc2ccccc2)NC1=O` [SEQ ID NO: 31] ({Palmitoyl-AEEA-AEEA-AEEA}-[Dap][Dap]GLSKGCFGLKLDRIGSQSGLGC-OH; disulfide 8-24; C-terminus assumed), in data set [1], the “IL-6 in BALF” value is on record as 56* % Of Control, the “MCP1 in BALF” value is 50** % Of Control and the “TNFα in BALF” value is 28** % Of Control. Besides, the “Increase of baseline plasma CNP levels” value in data set [2] is “over 5 fold”.

Source of the values: patent US20240325544A1, “CATIONIC LIPID FOR COVALENT MODIFICATION OF PEPTIDES” (PharmalN Corporation, priority 2023, published 2024).
